Source: article PMC3347531, “Mutation of Residue βF71 of Escherichia coli Penicillin Acylase Results in Enhanced Enantioselectivity and Improved Catalytic Properties” (Acta Naturae, 2009)

Target: T1, penicillin acylase (PA) from Escherichia coli (Escherichia coli, UniProt P06875)
T1 construct: gene pac; mature alpha/beta heterodimer processed from one precursor; recombinant from plasmid pEC in E. coli, purified
Assay: initial rate hydrolysis, enantioselectivity from kcat/Km ratio
Type: biochemical

T1 sequence (P06875 27-235): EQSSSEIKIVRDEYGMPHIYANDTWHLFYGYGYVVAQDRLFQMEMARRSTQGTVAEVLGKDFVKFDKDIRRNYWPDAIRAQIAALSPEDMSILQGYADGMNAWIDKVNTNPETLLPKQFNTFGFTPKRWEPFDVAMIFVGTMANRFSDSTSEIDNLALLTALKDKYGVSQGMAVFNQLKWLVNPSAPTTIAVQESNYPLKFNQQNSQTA
T1 sequence (P06875 290-846): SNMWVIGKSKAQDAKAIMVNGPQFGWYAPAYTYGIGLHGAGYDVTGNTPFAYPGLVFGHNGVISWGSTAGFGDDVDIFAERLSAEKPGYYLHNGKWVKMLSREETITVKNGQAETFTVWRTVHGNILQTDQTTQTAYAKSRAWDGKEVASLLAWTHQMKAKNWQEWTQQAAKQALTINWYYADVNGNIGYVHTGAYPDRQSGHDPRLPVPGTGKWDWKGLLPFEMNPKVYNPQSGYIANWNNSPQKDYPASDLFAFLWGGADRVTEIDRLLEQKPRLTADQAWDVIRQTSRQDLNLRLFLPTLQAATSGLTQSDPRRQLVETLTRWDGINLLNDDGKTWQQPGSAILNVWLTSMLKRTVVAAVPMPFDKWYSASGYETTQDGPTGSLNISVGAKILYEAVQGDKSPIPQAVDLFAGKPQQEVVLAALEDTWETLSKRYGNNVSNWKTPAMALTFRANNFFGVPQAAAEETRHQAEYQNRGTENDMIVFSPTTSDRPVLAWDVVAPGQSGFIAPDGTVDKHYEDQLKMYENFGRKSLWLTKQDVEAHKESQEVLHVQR

O=C(Cc1ccccc1)N[C@H](C(=O)O)c1ccccc1 [N-phenylacetyl-L-phenylglycine]
initial rate hydrolysis, enantioselectivity from kcat/Km ratio: WT PA exhibits already a very good chiral discrimination of N-phenylacetyl-phenylglycine enantiomers
